Experimental data from ChEMBL document CHEMBL4680067, “Identification of LASSBio-1945 as an inhibitor of SARS-CoV-2 main protease (MPRO) through in silico screening supported by molecular docking and a fragment-based pharmacophore model” (RSC Med Chem, 2021).

Assays:
[1] = Inhibition of SARS CoV-2 main protease; parameters: species or system Severe acute respiratory syndrome coronavirus 2
[2] = Inhibition of SARS CoV-2 main protease by rapidfire high-throughput mass spectrometry; parameters: species or system Severe acute respiratory syndrome coronavirus 2
[3] = system: Severe acute respiratory syndrome coronavirus 2; experiment: Inhibition of SARS CoV-2 main protease at 50 uM by rapidfire high-throughput mass spectrometry relative to control
SARS-CoV-2 = experiment: Antiviral activity against SARS CoV-2 infected in African green monkey Vero cells assessed as inhibition of viral replication measured after 72 hrs by qRT-PCR analysis; format: functional, organism-based; conditions: Severe acute respiratory syndrome coronavirus 2, Vero

Work on COc1ccc(/N=C2/C(=O)N(Cc3ccc4ccccc4c3)c3ccc(C(N)=O)cc32)cc1 yielded an IC50 [1] of 17 µM.

With Cc1ncccc1NC(=O)Cc1cccc(Cl)c1 the IC50 [2] was “Not Active”.

O=C(Cc1cccc(Cl)c1)Nc1cccnc1 gave an IC50 ([2]; read-out: IC50) of 53.7 µM.

With Cc1csc(C(=O)N/N=C/c2cccnc2)c1N the inhibition [3] was -6.32%.

In the case of O=C(CNc1c(-c2ccccc2)nc2ccccn12)N/N=C/c1cccc2ccccc12, the inhibition [3] is reported as 7.53%.

With Cc1cc(C(=O)N[C@@H](C)C(=O)N[C@H](C(=O)N[C@@H](CC(C)C)C(=O)N[C@H](/C=C/C(=O)OCc2ccccc2)C[C@@H]2CCNC2=O)C(C)C)no1 the EC50 (SARS-CoV-2) was 16.8 µM.

In the case of CCCc1cc2c(cc1S(=O)(=O)N1CCN(c3ccccc3)CC1)OCO2, the inhibition [3] is reported as 68.3% and the IC50 ([2]; read-out: IC50) is reported as 16 µM.

In the case of O=C(Nc1ccccc1)Nc1cnc2ccc([N+](=O)[O-])cc2n1, the inhibition [3] is reported as 0.77%.

In the case of Cc1[nH]c2ccccc2c1/C=N/N(C)C(=O)c1ccc2c(c1)OCO2, the inhibition [3] is reported as -6.66%.

In the case of Cc1ccc(NC(=O)Cc2cccc(Cl)c2)cn1, the IC50 [2] is reported as “Not Active”.
